# From patent publication US20230279024A1, “TRIAZINE COMPOUND AND COMPOSITION AND USE THEREOF” (BEIJING FINDCURE BIOSCIENCES, LTD., priority 2020, published 2023)
# Experiments:
# [1] = target: AXL (h) kinase (Homo sapiens (Human), UniProt P30530); experiment: AXL (h) kinase activity test (EZ Reader mobility shift, FLPeptide30); type: biochemical; details: ATP 100 μM, AXL 1 nM
# Method: The effect of the disclosed compounds as protein kinase inhibitors can be evaluated by the following experiments. The AXL (h) kinase activity of the compounds of the invention is tested by the following methods:
# Reagents used in the experiment were AXL (Carna Bioscience, Cat No.: 08-107) and FLPeptide30 (PerkinElmer, Cat No.: 760430). The instruments involved were thermotank (Thermo Scientific), oscillator (QILINBEIER), EZ Reader (PerkinElmer, Cat No.: 122919), Non-contact stage pipetting system (Labcyte Inc., Cat No.: Echo 550), and non-contact nanoliter pipetting system (TECAN, Cat No.: EVO200).
# Compound dilution: 1) Dissolve the compound in DMSO to the appropriate concentration; 2) Using TECAN EVO200 to dilute 10 concentrations in 384 microplates by three times gradient, the highest concentration is 1 mM; Echo550 was used to transfer 20 nL solution from the dilution plate to the test plate.
# 2) Add 15 μL solution 1 to each well of the test plate and incubate at room temperature for 30 minutes.
# 4) Add 5 μL solution 2 to start the reaction, and the final volume of each well is 20 μL.
# 5) Incubated at 25° C. for 90 min, and then added 75 μL stop solution (containing 0.5 M EDTA) to terminate the reaction.
# 6) The sample of each well was analyzed using EZ reader.
# 1) Based on the measured conversion rate (CR), the Remaining Activity (%) of the kinase was calculated according to the following function:
# 2) XLFit (Equation 201) software was used to fit IC50.
# The above methods can be used to obtain the inhibitory IC50 and/or inhibitory constant Ki.
# [2] = tested on: Ba/F3 AXL cells; experiment: Cell activity test: growth inhibition of Ba/F3 AXL cell line (CTG, 72 h); type: cell-based; details: Mus musculus, BaF3
# Method: This experiment was conducted by detecting the inhibitory effect of compounds on the growth of Ba/F3 AXL cell line and Ba/F3 parental cell line. Cells in logarithmic growth stage were harvested and counted by platelet counter. Trypan blue rejection method was used to detect cell viability to ensure that the cell viability was above 90%. Adjust cell concentration; 90 μL cell suspension was added to 96-well plates, respectively; Cells in 96-well plates were cultured overnight at 37° C., 5% CO2 and 95% humidity. A 10-fold drug solution was prepared, with the highest concentration of 10 μM, and a total of 9 concentrations were diluted at 3.16 times the ratio. 10 μL drug solution was added to each well of the 96-well plate inoculated with cells, and three wells were set for each drug concentration; 96-well plates were incubated at 37° C., 5% CO2 and 95% humidity for 72 h, and CTG analysis was performed. Thaw the CTG reagent and balance the cell plates to room temperature for 30 minutes. Add the same volume of CTG solution to each well and vibrate on a fixed-rail shaker for 5 minutes to crack the cells. Place the cell plates at room temperature for 20 minutes to stabilize the cold light signal and read the cold light value. The GraphPad Prism 5.0 software was used to analyze the data, and the nonlinear S-curve regression was used to fit the data to obtain the dose-effect curve, and the IC50 value was calculated accordingly. Cell survival rate (%)=(Lum drug to be tested −Lum culture medium control)/(Lum cell control−Lum culture medium control)×100%.
# Chain of AXL (h) kinase (P30530 473-894): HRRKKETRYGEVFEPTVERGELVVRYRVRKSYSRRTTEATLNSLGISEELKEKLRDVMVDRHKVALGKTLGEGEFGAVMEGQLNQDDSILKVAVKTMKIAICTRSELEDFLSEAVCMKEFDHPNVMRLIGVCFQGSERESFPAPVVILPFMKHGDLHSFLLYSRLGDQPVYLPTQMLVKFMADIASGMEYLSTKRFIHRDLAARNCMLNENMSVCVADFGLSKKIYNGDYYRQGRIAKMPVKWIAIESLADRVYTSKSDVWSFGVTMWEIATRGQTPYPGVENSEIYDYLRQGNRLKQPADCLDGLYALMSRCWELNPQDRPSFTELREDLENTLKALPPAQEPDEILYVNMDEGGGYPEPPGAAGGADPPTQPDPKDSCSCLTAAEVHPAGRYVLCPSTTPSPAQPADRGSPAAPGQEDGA
SMILES,IC50 [1],IC50 [2]
"Nc1ncnn2c1c(-c1ccc(NC(=O)c3c4n(n(-c5ccccn5)c3=O)CCOC4)cc1)cc2[C@H]1CC[C@H](O)CC1 [example 32, N-(4-(4-amino-7-((1r,4r)-4-hydroxycyclohexyl)pyrrolo[2,1-f][1,2,4]triazin-5-yl)phenyl)-2-oxo-1-(pyridin-2-yl)-2,4,6,7-tetrahydro-1H-pyrazolo[5,1-c][1,4]oxazine-3-carboxamide]",< 5 nM,–
"CC(C)(O)C(=O)N1CCC(c2cc(-c3ccc(NC(=O)c4c5n(n(-c6ccccn6)c4=O)CCCC5)cc3)c3c(N)ncnn23)CC1 [example 13, N-(4-(4-amino-7-(1-(2-hydroxy-2-methylpropanoyl)piperidin-4-yl)pyrrolo[2,1-f][1,2,4]triazin-5-yl)phenyl)-2-oxo-1-(pyridin-2-yl)-1,2,4,5,6,7-hexahydropyrazolo[1,5-a]pyridine-3-carboxamide]",5 to 50 nM,5 to 50 nM
"CC(C)C(=O)N1CCC(c2cc(-c3ccc(NC(=O)c4c5n(n(-c6ccccc6)c4=O)CCOC5)nc3)c3c(N)ncnn23)CC1 [example 35, N-(5-(4-amino-7-(1-isobutyrylpiperidin-4-yl)pyrrolo[2,1-f][1,2,4]triazin-5-yl)pyridin-2-yl)-2-oxo-1-phenyl-2,4,6,7-tetrahydro-1H-pyrazolo[5,1-c][1,4]oxazine-3-carboxamide]",–,< 5 nM
Nc1ncnn2c(C3CCN(C(=O)C4CC4)CC3)cc(-c3ccc(NC(=O)c4c5n(n(-c6ccncc6)c4=O)CCCC5)cc3)c12 [example 44],50 to 100 nM,–
"Nc1ncnn2c(C3CCNCC3)cc(-c3ccc(NC(=O)c4c5n(n(-c6ccccc6)c4=O)CCC5)cc3)c12 [example 5, N-(4-(4-amino-7-(piperidin-4-yl)pyrrolo[2,1-f][1,2,4]triazin-5-yl)phenyl)-2-oxo-1-phenyl-2,4,5,6-tetrahydro-1H-pyrrolo[1,2-b]pyrazole-3-carboxamide]",> 100 nM,> 100 nM
"Nc1ncnn2c(C3CCNCC3)cc(-c3ccc(NC(=O)c4c5n(n(-c6ccccc6)c4=O)CCOC5)cc3)c12 [example 2, N-(4-(4-amino-7-(piperidin-4-yl)pyrrolo[2,1-f][1,2,4]triazin-5-yl)phenyl)-2-oxo-1-phenyl-2,4,6,7-tetrahydro-1H-pyrazolo[5,1-c][1,4]oxazine-3-carboxamide]",> 100 nM,50 to 100 nM
"CC(C)C(=O)N1CCC(c2cc(-c3ccc(NC(=O)c4c5n(n(-c6ccccn6)c4=O)CCCC5)cc3F)c3c(N)ncnn23)CC1 [example 17, N-(4-(4-amino-7-(1-isobutyrylpiperidin-4-yl)pyrrolo[2,1-f][1,2,4]triazin-5-yl)-3-fluorophenyl)-2-oxo-1-(pyridin-2-yl)-1,2,4,5,6,7-hexahydropyrazolo[1,5-a]pyridine-3-carboxamide]",–,5 to 50 nM
"Nc1ncnn2c(C3CCC(O)CC3)cc(-c3ccc(NC(=O)c4c5n(n(-c6ccccn6)c4=O)CCOC5)cc3)c12 (stereo not shown) [example 32, N-(4-(4-amino-7-((1r,4r)-4-hydroxycyclohexyl)pyrrolo[2,1-f][1,2,4]triazin-5-yl)phenyl)-2-oxo-1-(pyridin-2-yl)-2,4,6,7-tetrahydro-1H-pyrazolo[5,1-c][1,4]oxazine-3-carboxamide]",–,5 to 50 nM
"CC(C)C(=O)N1CCC(c2cc(-c3ccc(NC(=O)c4c5n(n(-c6ccccc6)c4=O)CCC5)cc3)c3c(N)ncnn23)CC1 [example 6, N-(4-(4-amino-7-(1-isobutyrylpiperidin-4-yl)pyrrolo[2,1-f][1,2,4]triazin-5-yl)phenyl)-2-oxo-1-phenyl-2,4,5,6-tetrahydro-1H-pyrrolo[1,2-b]pyrazole-3-carboxamide]",–,< 5 nM

# The next lines start with the values.
IC50 [1],IC50 [2],SMILES
–,5 to 50 nM,"CC(C)(F)C(=O)N1CCC(c2cc(-c3ccc(NC(=O)c4c5n(n(-c6ccccn6)c4=O)CCOC5)cc3)c3c(N)ncnn23)CC1 [example 12, N-(4-(4-amino-7-(1-(2-fluoro-2-methylpropanoyl)piperidin-4-yl)pyrrolo[2,1-f][1,2,4]triazin-5-yl)phenyl)-2-oxo-1-(pyridin-2-yl)-2,4,6,7-tetrahydro-1H-pyrazolo[5,1-c][1,4]oxazine-3-carboxamide]"
5 to 50 nM,< 5 nM,"CC(C)(F)C(=O)N1CCC(c2cc(-c3ccc(NC(=O)c4c5n(n(-c6ccccn6)c4=O)CCCC5)cc3F)c3c(N)ncnn23)CC1 [example 26, N-(4-(4-amino-7-(1-(2-fluoro-2-methylpropanoyl)piperidin-4-yl)pyrrolo[2,1-f][1,2,4]triazin-5-yl)-3-fluorophenyl)-2-oxo-1-(pyridin-2-yl)-1,2,4,5,6,7-hexahydropyrazolo[1,5-a]pyridine-3-carboxamide]"
5 to 50 nM,–,"[2H][C@]1(O)CC[C@H](c2cc(-c3ccc(NC(=O)c4c5n(n(-c6ccccc6)c4=O)CCOC5)cc3F)c3c(N)ncnn32)CC1 [example 33, N-(4-(4-amino-7-((1r,4r)-4-hydroxycyclohexyl-4-d)pyrrolo[2,1-f][1,2,4]triazin-5-yl)-3-fluorophenyl)-2-oxo-1-phenyl-2,4,6,7-tetrahydro-1H-pyrazolo[5,1-c][1,4]oxazine-3-carboxamide]"
50 to 100 nM,5 to 50 nM,"CC(C)(F)C(=O)N1CCC(c2cc(-c3ccc(NC(=O)c4c5n(n(-c6ccccn6)c4=O)CCOC5)cc3F)c3c(N)ncnn23)CC1 [example 27, N-(4-(4-amino-7-(1-(2-fluoro-2-methylpropanoyl)piperidin-4-yl)pyrrolo[2,1-f][1,2,4]triazin-5-yl)-3-fluorophenyl)-2-oxo-1-(pyridin-2-yl)-2,4,6,7-tetrahydro-1H-pyrazolo[5,1-c][1,4]oxazine-3-carboxamide]"
5 to 50 nM,5 to 50 nM,"CC(C)(O)C(=O)N1CCC(c2cc(-c3ccc(NC(=O)c4c5n(n(-c6ccccn6)c4=O)CCOC5)cc3)c3c(N)ncnn23)CC1 [example 15, N-(4-(4-amino-7-(1-(2-hydroxy-2-methylpropanoyl)piperidin-4-yl)pyrrolo[2,1-f][1,2,4]triazin-5-yl)phenyl)-2-oxo-1-(pyridin-2-yl)-2,4,6,7-tetrahydro-1H-pyrazolo[5,1-c][1,4]oxazine-3-carboxamide]"
–,5 to 50 nM,"Nc1ncnn2c(C3CCN(C(=O)C4CC4)CC3)cc(-c3ccc(NC(=O)c4c5n(n(-c6ccccn6)c4=O)CCOC5)cc3F)c12 [example 28, N-(4-(4-amino-7-(1-(cyclopropanecarbonyl)piperidin-4-yl)pyrrolo[2,1-f][1,2,4]triazin-5-yl)-3-fluorophenyl)-2-oxo-1-(pyridin-2-yl)-2,4,6,7-tetrahydro-1H-pyrazolo[5,1-c][1,4]oxazine-3-carboxamide]"
–,< 5 nM,"Nc1ncnn2c1c(-c1ccc(NC(=O)c3c4n(n(-c5ccccc5)c3=O)CCCC4)cc1F)cc2[C@H]1CC[C@H](O)CC1 [example 24, N-(4-(4-amino-7-((1r,4r)-4-hydroxycyclohexyl)pyrrolo[2,1-f][1,2,4]triazin-5-yl)-3-fluorophenyl)-2-oxo-1-phenyl-1,2,4,5,6,7-hexahydropyrazolo[1,5-a]pyridine-3-carboxamide]"
> 100 nM,–,Nc1ncnn2c(C3CCN(C(=O)C4CCC4)CC3)cc(-c3ccc(NC(=O)c4c5n(n(-c6ccccn6)c4=O)CCC5)cc3)c12 [example 40]
5 to 50 nM,–,CC(C)(F)C(=O)N1CCC(c2cc(-c3ccc(NC(=O)c4c5n(n(-c6cccnn6)c4=O)CCCC5)cc3)c3c(N)ncnn23)CC1 [example 52]
–,< 5 nM,Nc1ncnn2c(C3CCC(O)CC3)cc(-c3ccc(NC(=O)c4c5n(n(-c6ccccc6)c4=O)CCOC5)nc3)c12 (stereo not shown) [example 23]
